# Measured values taken from patent US11766414B2, “Compositions, delivery systems, and methods useful in tumor therapy” (Indi Molecular, Inc., priority 2020, dated 2023).
# Starred links: 1 amine or outer side, 2 acyl side, 3 side chain; linkers in the order of their positions; H or OH if unused. Positions of bridges follow the written chain, without caps; N, C: chain ends. Non-standard residues stand in square brackets, D forms with d. Residues, ends and D or L forms follow the SMILES beside them. Triazole bridges read from a SMILES are 1,4-linked. *: point of attachment. DOTA = O=C(O)CN1CCN(CC(=O)O)CCN(CC(=O)*)CCN(CC(=O)O)CC1; Pteroyl = Nc1nc2ncc(CNc3ccc(C(=O)*)cc3)nc2c(=O)[nH]1; Butanoyl(4-(4-MePh)) = Cc1ccc(CCCC(=O)*)cc1; Lys(N3) = [N-]=[N+]=NCCCC[C@H](N)C(=O)O; γGlu = O=C(O)[C@H](CCC(=O)[*:2])N[*:1]; AEEEA = NCCOCCOCCOCC(=O)O; Pra = C#CC[C@H](N)C(=O)O
# Columns and labels:
# human plasma proteins = assay: Plasma protein binding, human plasma; format: in vitro ADME; conditions: human plasma
# Method: (§1) HTD 96 a/b regenerated cellulose membrane strips with mass cutoff of 12-14 kDa were soaked in ultra-pure water at room temperature for 1 hour. Each swelled membrane was then soaked in 20:80 ethanol:water for 20 minutes.
# (§2) Just prior to the experiment, the membranes were re-soaked in ultra-pure water. Plasma was prepared by thawing under cold water. The plasma was centrifuged to remove any clots and pH was adjusted to 7.0-8.0. Test articles and control compounds were diluted to 2 μM. The dialysis device was loaded by transferring 150 μL of the test article (in triplicate) to the donor side. The dialysis device was placed in a humidified incubator at 37° C. with 5% CO2 in a shaking platform that rotated slowly for 4 hours. After incubation, 50 μL of the supernatant was taken from both sides and analyzed by LC-MS/MS.
# mouse plasma proteins = assay: Plasma protein binding, CD-1 mouse plasma; format: in vitro ADME; conditions: CD-1 mouse plasma
# Method: as §1, §2
# [1] = test system: OVCAR3 (FOLR1+) tumor bearing NSG mice; conditions: mouse, in vivo, iv, 200 uCi, 4 h
# Method: Female, 7-week-old NSG mice were housed under pathogen-free conditions. Water and food were provided ad libitum. To create mice with FOLR1+ ovarian xenograft tumors, mice were injected subcutaneously with OVCAR3 cells (1×10^7 cells per mouse) resuspended in 50% Matrigel in PBS into the shoulder region. Tumor growth was monitored by caliper measurements. OVCAR3 is a human ovarian adenocarcinoma known to over-express FOLR1.
# ^68Ga PET imaging was used to study in vivo biodistribution of heterobiligands in non-tumor bearing (healthy) mice and OVCAR3 tumor bearing mice. 100-200 μCi of [^68Ga]DOTA-labeled heterobiligand was administered intravenously (i.v.) via the tail vein of each mouse. […]
# Evaluation of a folate-hshta (SEQ ID NO:6) Nterm heterobiligand bearing both an albumin binder and DOTA chelator in PET was a priority, given that DOTA can accommodate both ^68Ga for imaging and ^177Lu for radiotherapy. […] The time-course biodistribution of ^68Ga-labeled folate-hshta-PEG3-Lys(MPBA)-Lys(DOTA) (SEQ ID NO:6) (compound #2809) was calculated to quantify the uptake in major organs including the tumor (FIG. 17). […] Larger tumors (490 mm^3) were also evaluated with the ^68Ga-chelated PET probe.
# Biodistribution was initially evaluated by PET imaging, as the time frame for a significant portion of clearance is roughly similar to the time frame of PET imaging experiments. […]
Structure (SMILES),"Plasma % Bound, Hu (human plasma proteins)","Plasma protein binding % Recovery, Hu (human plasma proteins)","Plasma % Bound, Mu (mouse plasma proteins)","Plasma protein binding % Recovery, Mu (mouse plasma proteins)",accumulation within the tumor [1]
"C[C@@H](O)[C@@H]1NC(=O)[C@H](CCCCN)NC(=O)[C@@H](Cc2c[nH]c3ccccc23)NC(=O)[C@H](Cc2ccccc2)NC(=O)[C@@H](NC(=O)[C@H](N)Cc2ccccc2)CSSC[C@@H](C(=O)N[C@H](CO)[C@@H](C)O)NC1=O [Octreotide Acetate, reference compound]",59.41%,84.3%,62.36%,84.5%,
"Cc1ccc(CCCC(=O)NCCCC[C@H](NC(=O)COCCOCCOCCNC(=O)[C@@H]2CCCCn3cc(nn3)C[C@H](NC(=O)CC[C@H](NC(=O)c3ccc(NCc4cnc5nc(N)[nH]c(=O)c5n4)cc3)C(=O)O)C(=O)N[C@H](Cc3c[nH]cn3)C(=O)N[C@H](CO)C(=O)N[C@H](Cc3c[nH]cn3)C(=O)N[C@H]([C@H](C)O)C(=O)N[C@H](C)C(=O)N2)C(=O)N[C@@H](CCCCNC(=O)CN2CCN(CC(=O)O)CCN(CC(=O)O)CCN(CC(=O)O)CC2)C(N)=O)cc1 [^68Ga-chelated compound #2809, metal not drawn] ({Pteroyl-γGlu}-[Pra][dH][dS][dH][dT][dA][Lys(N3)][AEEEA]K(Butanoyl(4-(4-MePh)))K(DOTA)-NH2; triazole 1-7)",,,,,~2.2 % of the injected dose/cc
